Measured values taken from ChEMBL document CHEMBL5634096, “Design, synthesis and bioevaluation of PI3Kα-selective inhibitors as potential colorectal cancer drugs” (Eur J Med Chem, 2023).
pIC50: −log10 of the molar value. The source made the active and inactive calls. The rule behind the calls is not given here.

Tests used:
[1] = biological target: Serine/threonine-protein kinase 17A (Homo sapiens) (UniProt Q9UEE5); assay: Inhibition of human DRAK1 at 1 uM
HCT-116 [2] = assay: Antiproliferative activity against human HCT-116 cells assessed as inhibition of colony formation at 3 to 12 uM incubated for 48 hrs by crystal violet staining based assay; format: functional, cell-based; details: dose 3-12 µM
Cytochrome P450 2C19 = Cytochrome P450 2C19 (Homo sapiens, UniProt P33261); assay: Inhibition of CYP2C19 in human liver microsomes using omeprazole as substrate pre-incubated for 30 mins followed by substrate addition and measured after 15 mins in presence of NADPH by LC/MS analysis; format: ADME, Microsome
[3] = Metabolic stability in Sprague-Dawley rat liver microsomes assessed as compound remaining at 5 ug/ml incubated for 1 hr in presence of NADPH by LC-MS/MS analysis; format: ADME, Microsome; details: at 5 µg/mL, read-out: Stability
GBC-SD = assay: Antiproliferative activity against human GBC-SD cells assessed as reduction in cell viability at 10 uM incubated for 24 to 48 hrs by CCK-8 assay; format: functional, cell-based; details: time lower […], time upper 48.0 hrs
HCT-116 [4] = assay: Antiproliferative activity against human HCT-116 cells assessed as inhibition of Akt phosphorylation incubated for 48 hrs by Western blotting analysis; format: functional, cell-based; details: dose 3-12 µM
Cytochrome P450 2D6 = Cytochrome P450 2D6 (Homo sapiens, UniProt P10635); assay: Inhibition of CYP2D6 in human liver microsomes using dextromethorphan as substrate pre-incubated for 30 mins followed by substrate addition and measured after 15 mins in presence of NADPH by LC/MS analysis; format: ADME, Microsome
MCF7 [5] = assay: Antiproliferative activity against human MCF7 cells expressing PIK3CA with E545K mutation assessed as reduction in cell viability incubated for 24 to 48 hrs by CCK-8 assay; format: functional, cell-based
HCT-116 [6] = assay: Induction of cell cycle arrest in human HCT-116 cells assessed as decrease in accumulation of cells at G2/M phase at 3 to 12 uM incubated for 48 hrs by PI staining based flow cytometry analysis (reference value: 16.5 %); format: functional; parameters: scale not given: the % may be the effect or the level left; details: dose 3-12 µM
HCT-116 [7] = assay: Induction of apoptosis in human HCT-116 cells assessed as increased total apoptotic cells at 6 uM incubated for 48 hrs by Annexin V-FITC and propidium iodide staining based flow cytometry analysis (reference value: 4.22 %); format: functional
HCT-116 [8] = assay: Antiproliferative activity against human HCT-116 cells expressing PIK3CA with H1047R mutation assessed as reduction in cell viability incubated for 24 to 48 hrs by CCK-8 assay; format: functional, cell-based
HCT-116 [9] = assay: Antiproliferative activity against human HCT-116 cells assessed as inhibition of PI3K phosphorylation incubated for 48 hrs by Western blotting analysis; format: functional, cell-based; details: dose 3-12 µM
MCF7 [10] = assay: Antiproliferative activity against human MCF7 cells assessed as reduction in cell viability incubated for 24 to 48 hrs by CCK-8 assay; format: functional, cell-based

Cytochrome P450 2C19, sequence (P33261 whole entry): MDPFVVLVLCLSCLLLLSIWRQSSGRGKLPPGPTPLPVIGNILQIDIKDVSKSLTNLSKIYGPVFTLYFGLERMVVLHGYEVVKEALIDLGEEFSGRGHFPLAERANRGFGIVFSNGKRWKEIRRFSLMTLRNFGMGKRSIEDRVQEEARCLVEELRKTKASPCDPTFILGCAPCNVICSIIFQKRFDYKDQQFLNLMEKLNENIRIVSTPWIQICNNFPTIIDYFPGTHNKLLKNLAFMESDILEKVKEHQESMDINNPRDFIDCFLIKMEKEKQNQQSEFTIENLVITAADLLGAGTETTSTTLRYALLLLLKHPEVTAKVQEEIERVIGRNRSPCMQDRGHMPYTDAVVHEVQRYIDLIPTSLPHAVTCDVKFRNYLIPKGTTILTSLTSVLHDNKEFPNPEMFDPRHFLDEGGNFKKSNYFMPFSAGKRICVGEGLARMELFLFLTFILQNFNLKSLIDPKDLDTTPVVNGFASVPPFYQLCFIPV
Cytochrome P450 2D6, sequence (P10635 whole entry): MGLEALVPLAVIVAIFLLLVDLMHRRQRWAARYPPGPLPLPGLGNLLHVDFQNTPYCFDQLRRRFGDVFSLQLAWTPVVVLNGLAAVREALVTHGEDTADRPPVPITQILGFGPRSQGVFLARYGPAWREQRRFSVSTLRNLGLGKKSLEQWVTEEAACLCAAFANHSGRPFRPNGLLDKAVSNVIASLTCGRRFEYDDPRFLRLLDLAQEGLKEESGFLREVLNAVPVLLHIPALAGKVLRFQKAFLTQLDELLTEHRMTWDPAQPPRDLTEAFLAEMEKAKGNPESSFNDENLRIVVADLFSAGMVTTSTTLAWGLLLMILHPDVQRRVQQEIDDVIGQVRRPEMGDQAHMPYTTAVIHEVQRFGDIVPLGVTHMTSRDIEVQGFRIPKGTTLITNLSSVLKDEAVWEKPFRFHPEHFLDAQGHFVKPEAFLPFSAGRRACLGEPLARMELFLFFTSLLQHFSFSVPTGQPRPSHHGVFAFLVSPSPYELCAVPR
Serine/threonine-protein kinase 17A (Homo sapiens), sequence (Q9UEE5 whole entry): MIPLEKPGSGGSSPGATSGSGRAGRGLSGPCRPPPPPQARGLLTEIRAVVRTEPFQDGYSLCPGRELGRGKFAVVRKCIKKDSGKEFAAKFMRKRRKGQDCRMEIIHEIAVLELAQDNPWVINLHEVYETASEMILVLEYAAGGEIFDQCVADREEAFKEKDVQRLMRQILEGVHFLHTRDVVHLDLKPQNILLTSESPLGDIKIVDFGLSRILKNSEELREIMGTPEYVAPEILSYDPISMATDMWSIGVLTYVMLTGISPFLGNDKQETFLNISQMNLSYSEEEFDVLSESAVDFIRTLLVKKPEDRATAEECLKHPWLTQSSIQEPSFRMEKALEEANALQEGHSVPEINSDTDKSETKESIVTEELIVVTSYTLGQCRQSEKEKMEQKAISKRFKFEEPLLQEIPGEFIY

inhibition [1]: Active
pIC50 (Cytochrome P450 2C19): < 5.00
remaining at 1 h, 5 ug/ml [3]: 82.3%
pIC50 (Cytochrome P450 2D6): < 5.00
pIC50 (MCF7 [5]): 5.48
pIC50 (HCT-116 [8]): 5.14
pIC50 (MCF7 [10]): 6.12
Structure (SMILES): Nc1nc2cc(-c3ccc4ncc(N5C[C@@H]6OCCO[C@@H]6C5)nc4c3)ccc2o1
Activity (HCT-116 [2]): Active
Activity (GBC-SD): Active
Activity (HCT-116 [4]): Dose-Dependent Effect
Activity (HCT-116 [6]): 19%
Activity (HCT-116 [7]): 12.31%
Activity (HCT-116 [9]): Dose-Dependent Effect
